Data on 78 compounds can be found in ChEMBL document CHEMBL2094269, “WEHI/Eskitis Trypanosoma b. brucei screening data”.

Data set [1] has as its system Trypanosoma brucei brucei. The experiment in a line: microbe, parasite or virus in culture. In kind it is functional, organism-based, STIB 795.
Description: DNDI: Inhibition of Human African Trypanosomiasis (HAT), STIB 795, in vitro
Data set [2] in a line: DNDI: Cytotoxicity against human MRC-5 lung fibroblast cells. As to conditions: IC50.

Turning to `CCCN(CCC)C(=O)Cn1ccc(=N)c2ccccc21`, the IC50 in data set [1] (Trypanosoma brucei, STIB 795) was 3.52 µM; in data set [2], more than 41.7 µM.
The like results for `CNCCCC1Sc2ccccc2Oc2ccccc21` (stereo not drawn) were, in that order, 4.7 µM and more than 41.7 µM.
The like results for `COc1ccc(C(=O)O/N=C(\N)c2ccccn2)c(OC)c1` were, in that order, 4.49 µM and more than 20.8 µM.
For `COc1ccccc1NC(=O)c1cc(Cl)nnc1Cl`, the concentration for half-maximal inhibition (IC50) is 5.44 µM in data set [1] (Trypanosoma brucei, STIB 795) and more than 20.8 µM in data set [2].
The like results for `Cc1ccc(C(=O)O/N=C(\N)Cc2cccs2)c(Cl)c1` were, in that order, 0.768 µM and more than 41.7 µM.
The like results for `COCc1cc(O)nc(Nc2nc3ccc(C)cc3o2)n1` were, in that order, 5.16 µM and more than 20.8 µM.
The like results for `Cc1ccc2[nH]c(/C(C#N)=C/c3ccc(O)c(O)c3)nc2c1` were, in that order, 1.51 µM and more than 20.8 µM.
For the compound `CCOC(=O)C(=Cc1cc(=O)c(OC)co1)C(=O)OCC`, the half-maximal inhibitory concentration (IC50) in data set [1] (Trypanosoma brucei, STIB 795) is 5.5 µM; in data set [2], more than 20.8 µM.
The like results for `Cn1c(Cl)cnc1C1CC(=O)c2cc(Cl)ccc2O1` (stereo not drawn) were, in that order, 0.81 µM and more than 41.7 µM.
For `N=C(NOC(=O)C12CC3CC(CC(C3)C1)C2)c1ccccc1`, the IC50 in data set [1] (Trypanosoma brucei, STIB 795) is 0.322 µM; in data set [2], more than 20.8 µM.
The like results for `NC(=NOC(=O)c1cccc2ccccc12)c1ccccn1` were, in that order, 3.58 µM and more than 20.8 µM.
The like results for `CN(C)c1ccc(/C=C/c2cc[n+](C)c3ccccc23)cc1` were, in that order, 0.038 µM and more than 2.08 µM.
The like results for `NCCc1c(-c2ccccc2)n(-c2ccccc2)c2ccccc12` were, in that order, 1.49 µM and more than 20.8 µM.
With `Cc1cccc2cc(-c3ccccc3)c(N3CCNCC3)nc12`, the IC50 was 1.45 µM in data set [1] (Trypanosoma brucei, STIB 795) and more than 4.17 µM in data set [2].
Turning to `CN1C=C/C(=C\C=C2/C=Nc3ccccc32)c2ccccc21`, the 50% inhibitory concentration (IC50) in data set [1] (Trypanosoma brucei, STIB 795) is 0.311 µM; in data set [2], more than 4.17 µM.
The like results for `CC(C)COc1ccc2c(c1)c1c3n2CNCC3CCC1` (stereo not drawn) were, in that order, 2.88 µM and more than 20.8 µM.
The like results for `c1ccc(Nc2nc(-c3ccccc3)c3ccccn23)cc1` were, in that order, 5.38 µM and more than 41.7 µM.
The like results for `CC(C)=CC1C(C(=O)O/N=C(\N)c2ccccc2)C1(C)C` (stereo not drawn) were, in that order, 1.16 µM and more than 41.7 µM.
As to `CC(C)Cc1ccc(C(C)C(=N)NC2CCCCC2)cc1` (stereo not drawn), the concentration for half-maximal inhibition (IC50) in data set [1] (Trypanosoma brucei, STIB 795) was 5.45 µM; in data set [2], more than 20.8 µM.
The like results for `C=CC[n+]1ccc(/C=C/c2ccccc2O)c2ccccc21` were, in that order, 5.28 µM and more than 41.7 µM.
Turning to `O=C(CNc1ccc(Cl)cc1)N/N=C/c1cccnc1`, the half-inhibitory concentration (IC50) in data set [1] (Trypanosoma brucei, STIB 795) is 1.75 µM; in data set [2], more than 4.17 µM.
The like results for `C/C(=N\NC(=O)c1cccc2ccccc12)c1ccccn1` were, in that order, 2.34 µM and more than 4.17 µM.
The like results for `COc1ccc(CCON2C(N)=NC(N)=NC2(C)C)cc1` were, in that order, not above 3.11 µM and more than 4.17 µM.
The like results for `O=C(N/N=C/c1cc(Cl)ccc1O)c1ccc(F)cc1` were, in that order, not above 10.4 µM and more than 20.8 µM.
On to `CN(C)CCCOC1=Cc2ccccc2Cc2ccccc21`, for which the half-inhibitory concentration (IC50) is 6.6 µM in data set [1] (Trypanosoma brucei, STIB 795) and more than 41.7 µM in data set [2].
The like results for `Cc1cccc(NC(=O)Cn2cc(CO)c3ccccc32)c1` were, in that order, 5.39 µM and more than 4.17 µM.
In the case of `C1=C(N2CCNCC2)c2ccccc2Sc2ccccc21`, the half-maximal inhibitory concentration (IC50) in data set [1] (Trypanosoma brucei, STIB 795) is 3.16 µM; in data set [2] it was more than 20.8 µM.
The like results for `CCN(CC)c1ccc(C2N(C)c3ccccc3N2C)cc1` were, in that order, 2.49 µM and more than 41.7 µM.
As to `C[n+]1ccccc1C=C1C=CN(c2ccc(Cl)cc2)C=C1`, the 50% inhibitory concentration (IC50) in data set [1] (Trypanosoma brucei, STIB 795) is 0.028 µM; in data set [2], more than 4.17 µM.
The like results for `COc1ccc(C(C)(C)C#Cc2c(C)nc(N)nc2N)cc1` were, in that order, not above 3.48 µM and more than 4.17 µM.
The like results for `Nc1nonc1C(=O)N/N=C/c1c(O)ccc2ccccc12` were, in that order, 5.33 µM and more than 4.17 µM.
The like results for `CC(C)(C)c1ccc(C(=O)O/N=C(\N)c2ccncc2)cc1` were, in that order, 0.95 µM and more than 41.7 µM.
As for `CCCC[n+]1cc(-c2ccccc2)nc(N2CCCCC2)n1`, the half-maximal inhibitory concentration (IC50) in data set [1] (Trypanosoma brucei, STIB 795) was 7.6 µM; in data set [2], more than 41.7 µM.
The like results for `CNCCCC1Sc2ccccc2C(C)c2ccccc21` (stereo not drawn) were, in that order, 4.88 µM and more than 20.8 µM.
The like results for `O=C1c2cccc3c(N4CCOCC4)ccc(c23)C(=O)N1O` were, in that order, 8.03 µM and more than 41.7 µM.
The like results for `O=C1/C(=C/c2ccccc2)CCS(=O)(=O)c2ccccc21` were, in that order, 5.55 µM and more than 41.7 µM.
As for `CC(=O)NC(c1cccs1)c1ccc2cccnc2c1O` (stereo not drawn), the concentration for half-maximal inhibition (IC50) was determined as 0.924 µM in data set [1] (Trypanosoma brucei, STIB 795) and 0.984 µM in data set [2].
The like results for `COc1ccc2c(c1)S/C(=C/C(=O)c1ccncc1)N2C` were, in that order, 5.01 µM and more than 41.7 µM.
The like results for `COc1ccc(OCC(=O)N/N=C(\C)c2ccccn2)cc1` were, in that order, 5.26 µM and more than 20.8 µM.
The like results for `O=C(Nc1c2ccccc2nc2ccccc12)c1ccncc1` were, in that order, 1.2 µM and 5.82 µM.
As to `O=S(=O)(Nc1cccc2cccnc12)c1ccccc1O`, the IC50 was 0.521 µM in data set [1] (Trypanosoma brucei, STIB 795) and more than 10.4 µM in data set [2].
The like results for `CCc1ccccc1-n1c(=O)oc2ccc(Cl)cc2c1=O` were, in that order, 5.13 µM and more than 4.17 µM.
The like results for `O=C(/C=C/c1ccccc1)ONC(=O)c1ccc(Cl)cc1` were, in that order, 4.45 µM and more than 20.8 µM.
The like results for `Cc1oc2c(O)c(O)ccc2c(=O)c1Oc1ccccc1F` were, in that order, 0.133 µM and more than 41.7 µM.
Consider `NCCNCCC=C(c1ccc(F)cc1)c1ccc(F)cc1`, for which the IC50 in data set [1] (Trypanosoma brucei, STIB 795) is 0.265 µM; in data set [2], more than 20.8 µM.
The like results for `COc1cc(OC)nc(-n2ncc(Cl)c(Cl)c2=O)n1` were, in that order, 5.32 µM and 4.53 µM.
The like results for `Cn1c2ccccc2c2nnc(N/N=C/c3ccccn3)nc21` were, in that order, 0.52 µM and more than 1.04 µM.
The like results for `Cc1cc(C)[n+]2nc3n(-c4ccccc4)c(C)cc(C)c-3c2n1` were, in that order, 4.46 µM and more than 41.7 µM.
As to `CCOC(=O)c1cnc2c(OC)cccc2c1NCCCO`, the IC50 in data set [1] (Trypanosoma brucei, STIB 795) was 8.61 µM; in data set [2] it was more than 41.7 µM.
The like results for `CCn1c(Cc2nc3ccccc3n2CC)nc2ccccc21` were, in that order, 3.87 µM and more than 41.7 µM.
The like results for `COc1ccc(/C(N)=N/OC(=O)c2ccccc2Cl)cc1` were, in that order, 1.21 µM and more than 20.8 µM.
The like results for `Clc1cc2c(c3ncccc13)OCN(CC1CCCO1)C2` (stereo not drawn) were, in that order, 6.81 µM and 6.72 µM.
For `NCCCCCOC(c1ccc(F)cc1)c1ccc(F)cc1`, the IC50 is 5.53 µM in data set [1] (Trypanosoma brucei, STIB 795) and more than 41.7 µM in data set [2].
Consider `CN(C)c1ccc(/C=C/c2cc(-c3ccccc3)o[n+]2C)cc1`, for which the IC50 was 0.133 µM in data set [1] (Trypanosoma brucei, STIB 795) and more than 2.08 µM in data set [2].
The like results for `C(=C\c1ccc(OC2CN3CCC2CC3)cc1)/c1ccccc1` (stereo not drawn) were, in that order, 5.31 µM and more than 41.7 µM.
The like results for `Cc1ccc(Nc2cc(C)nc3c(C)c(C)cc(N)c23)c(C)c1` were, in that order, 5.12 µM and more than 41.7 µM.
The like results for `CC(=O)NC(c1ccccc1C)c1ccc2cccnc2c1O` (stereo not drawn) were, in that order, 0.655 µM and more than 1.04 µM.
As to `O=C1C=C/C(=N\Nc2ccc3c(c2)OCCO3)c2cccnc21`, the half-maximal inhibitory concentration (IC50) in data set [1] (Trypanosoma brucei, STIB 795) is 1.43 µM; in data set [2], more than 20.8 µM.
The like results for `CN(C)CCCC1(O)c2ccccc2C2(CC2)c2ccccc21` were, in that order, 0.436 µM and more than 10.4 µM.
The like results for `O=C(/C=C/c1ccccc1Cl)Nc1ccc2ccccc2c1` were, in that order, 6.12 µM and more than 41.7 µM.
The like results for `NCC(c1ccc(Cl)cc1)c1ccc(-c2ccccc2)cc1` (stereo not drawn) were, in that order, 4.59 µM and more than 41.7 µM.
With `C/C(=N\NC(=O)c1ccc(Cl)c(Cl)c1)c1ccccn1`, the IC50 in data set [1] (Trypanosoma brucei, STIB 795) was 5.16 µM; in data set [2], more than 41.7 µM.
The like results for `Cc1cc(C)n(-c2ccc3c(Cl)cc(Cl)c(O)c3n2)n1` were, in that order, 4.79 µM and more than 41.7 µM.
The like results for `COc1ccc(/C(N)=N/OC(=O)N2CCOCC2)cc1OC` were, in that order, 2.98 µM and more than 20.8 µM.
The like results for `NCC12CC3CC(C1)CC(c1ccc(Cl)c(Cl)c1)(C3)C2` were, in that order, 2.54 µM and more than 41.7 µM.
On to `CCOC(=O)N/N=C1/c2ccccc2-c2nc3nonc3nc21`, for which the IC50 in data set [1] (Trypanosoma brucei, STIB 795) is 0.8 µM; in data set [2] it was more than 20.8 µM.
The like results for `CCOC(=O)c1nc[nH]c1/N=N/c1ccc(O)c2ccccc12` were, in that order, 0.927 µM and 3.83 µM.
As to `Fc1ccc(C(=CCCn2ccnc2)c2ccc(F)cc2)cc1`, the IC50 in data set [1] (Trypanosoma brucei, STIB 795) was 0.327 µM; in data set [2] it was 7.02 µM.
The like results for `C/C(=N\NC(=O)CCCNc1cccc(C)c1)c1ccccn1` were, in that order, 3.96 µM and more than 10.4 µM.
The like results for `CCc1cc(OCCCCCN2CCNCC2)ccc1Cl` were, in that order, 0.807 µM and more than 20.8 µM.
On to `N#CC1=C(N)Oc2[nH]nc(C(F)(F)F)c2C1c1cccs1` (stereo not drawn), for which the concentration for half-maximal inhibition (IC50) is 5.41 µM in data set [1]; 5.51 µM in data set [1] (Trypanosoma brucei, STIB 795); more than 41.7 µM in data set [2].
As for `O=C1/C(=C\c2ccccc2F)COC/C1=C\c1ccccc1F`, the IC50 in data set [1] (Trypanosoma brucei, STIB 795) is 1.6 µM; in data set [2], more than 41.7 µM.
The like results for `CCc1ccccc1Nc1nc(-c2ccc(O)cc2O)cs1` were, in that order, 3.63 µM and more than 41.7 µM.
In the case of `CCN(CC)c1ccc(/C=N/NC(=O)c2ccncc2)c(O)c1`, the concentration for half-maximal inhibition (IC50) in data set [1] was 7.34 µM; in data set [1] (Trypanosoma brucei, STIB 795) it was 3.82 µM; in data set [2], more than 4.17 µM.
`CCN1CCCC(Nc2ccnc3cc4ccccc4cc23)C1` (stereo not drawn): the IC50 was determined as 0.275 µM in data set [1] (Trypanosoma brucei, STIB 795) and 4.95 µM in data set [2].
Regarding `COc1ccc2c(c1)C(=NN=C(N)N)c1cc(OC)ccc1-2`, the half-inhibitory concentration (IC50) in data set [1] (Trypanosoma brucei, STIB 795) is 4.23 µM; in data set [2], more than 41.7 µM.
The like results for `NC1c2ccccc2CC1Cc1ccc(Cl)cc1Cl` (stereo not drawn) were, in that order, 5.23 µM and more than 20.8 µM.
The like results for `CN1/C(=C/C=C/c2oc3ccccc3[n+]2C)Oc2ccccc21` were, in that order, 0.253 µM and more than 2.08 µM.

The IC50 is the concentration that inhibits the measured activity by half. Low values mean higher potency, high ones lower potency.
